System: ALP in NHAC (normal human articular chondrocytes)
Assay: Alkaline Phosphatase (ALP) activity assay: ALP staining and quantitation in NHACs (prevention of chondrocyte hypertrophy)
Assay type: cell-based
Details: Chondrocyte, 288 h, human IL-1 beta 10 ng/mL, 12 days; for IC50: Fast Blue RR staining, high content imaging; for Emax: read-out: ALP in NHAC (% Efficacy)
Procedure, shortened: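 NHACs were plated with test compound in DMEM containing 10% FBS, and human IL-1 beta was added 5 h later at 10 ng/mL final. Cultures were kept 12 days at 37° C, 5% CO2. Cells were then fixed, ALP-stained with Fast Blue RR/Naphthol AS-MX, and hypertrophic cells were imaged and quantified by high-content imaging.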

Row | Structure (SMILES) | IC50 [µM] | Emax [%]
1 | COc1cc([C@@]23C[C@]2(C(=O)Nc2cc(C(F)(F)F)ccc2F)[C@H]2C[C@H](O)[C@@H]3O2)ccn1 (racemic) [Example 33, rac-(1R,2R,4S,5R,6S)—N-(2-fluoro-5-(trifluoromethyl)phenyl)-6-hydroxy-4-(2-methoxypyridin-4-yl)-8-oxatricyclo[3.2.1.02,4]octane-2-carboxamide] | > 30 | 12
2 | COc1cc([C@@]23C[C@]2(C(=O)Nc2ccc(C(F)(F)F)c(F)c2)[C@H]2C[C@H](O)[C@@H]3O2)ccn1 (racemic) [Example 75, rac-(1R,2R,4S,5R,6S)—N-(3-fluoro-4-(trifluoromethyl)phenyl)-6-hydroxy-4-(2-methoxypyridin-4-yl)-8-oxatricyclo[3.2.1.02,4]octane-2-carboxamide] | > 30 | 26
3 | Cc1cc(C(F)(F)F)cc(NC(=O)[C@]23C[C@@]2(c2ccnc(F)c2)[C@H]2O[C@@H]3C[C@@H]2O)n1 (racemic) [Example 7, rac-(1R,2R,4S,5R,6S)-4-(2-fluoropyridin-4-yl)-6-hydroxy-N-(6-methyl-4-(trifluoromethyl)pyridin-2-yl)-8-oxatricyclo[3.2.1.02,4]octane-2-carboxamide] | > 30 | 0
4 | COc1cc([C@@]23C[C@]2(C(=O)Nc2ccc(C#N)c(C(F)(F)F)c2)[C@H]2C[C@H](O)[C@@H]3O2)ccn1 (racemic) [Example 38, rac-(1R,2R,4S,5R,6S)—N-(4-cyano-3-(trifluoromethyl)phenyl)-6-hydroxy-4-(2-methoxypyridin-4-yl)-8-oxatricyclo[3.2.1.02,4]octane-2-carboxamide] | 24 | 71
5 | O=C(Nc1cc(C(F)(F)F)c(Cl)cn1)[C@]12C[C@@]1(c1ccnc(F)c1)[C@H]1O[C@@H]2C[C@@H]1O (racemic) [Example 5, rac-(1R,2R,4S,5R,6S)-N-(5-chloro-4-(trifluoromethyl)pyridin-2-yl)-4-(2-fluoropyridin-4-yl)-6-hydroxy-8-oxatricyclo[3.2.1.02,4]octane-2-carboxamide] | > 30 | 38
6 | Cn1cc([C@@]23C[C@]2(C(=O)Nc2ccc(C(F)(F)F)cc2)[C@H]2C[C@H](O)[C@@H]3O2)c(C(F)(F)F)n1 (racemic) [Example 42, rac-(1R,2R,4S,5R,6S)-6-hydroxy-4-(1-methyl-3-(trifluoromethyl)-1H-pyrazol-4-yl)-N-(4-(trifluoromethyl)phenyl)-8-oxatricyclo[3.2.1.02,4]octane-2-carboxamide] | > 30 | 46
7 | O=C(Nc1ccc(C(F)(F)F)c(F)c1)[C@]12C[C@@]1(c1ccnc(F)c1)[C@H]1O[C@@H]2C[C@@H]1O (racemic) [Example 2, rac-(1R,2R,4S,5R,6S)-N-(3-fluoro-4-(trifluoromethyl)phenyl)-4-(2-fluoropyridin-4-yl)-6-hydroxy-8-oxatricyclo[3.2.1.02,4]octane-2-carboxamide] | > 30 | 28

Source: patent US12365692B2, “6-hydroxy-8-oxatricyclo[3.2.1.02,4]octane-2-carboxamide derivatives for inducing chondrogenesis for treating joint damage” (NOVARTIS AG, priority 2018, dated 2025)
